Here are results for 33 molecules from ChEMBL document CHEMBL1146125, “Ultra-potent P1 modified arylsulfonamide HIV protease inhibitors: the discovery of GW0385” (Bioorg Med Chem Lett, 2006).

The structures appear in SMILES notation.

Data set [1] deals with MT4. In words: Antiviral activity against HIV1 EP13 in MT4 cells. It counts as functional, cell-based. As to conditions: Homo sapiens.
Data set [2] can be described thus: Clearance in dog at 1 mg/kg, iv. It counts as ADME, organism-based, Canis lupus familiaris. The arrangement: dose 1 mg/kg, route intravenous. As to conditions: in vivo.
Data set [3] is described as follows: Oral bioavailability in dog at 1 mg/kg. Format: ADME, organism-based, Canis lupus familiaris. As to conditions: in vivo.
Data set [4] can be described thus: Half life in dog at 1 mg/kg. It counts as ADME, organism-based, Canis lupus familiaris. The arrangement: dose 1 mg/kg. As to conditions: in vivo.
Data set [5] has as its system MT4. In words: Antiviral activity against HIV D545701 in MT4 cells. It counts as functional, cell-based. As to conditions: Homo sapiens.
The test system of data set [6] is MT4. In words: Antiviral activity against HIV1 HXB2 in MT4 cells. It counts as functional, cell-based. Conditions: Homo sapiens.
Data set [7] in a line: Clearance in rat at 1 mg/kg, iv. It counts as ADME, organism-based. Set-up: dose 1 mg/kg, route intravenous. Conditions: in vivo.
The nature of data set [8]: Oral bioavailability in rat at 1 mg/kg. Format: ADME, organism-based. Conditions: in vivo.
The nature of data set [9]: Half life in rat at 1 mg/kg. Set-up: dose 1 mg/kg. It counts as ADME, organism-based. Conditions: in vivo.

As for `CC(C)CN(C[C@@H](O)[C@H](Cc1ccc(OCCc2cccs2)cc1)NC(=O)O[C@H]1CO[C@H]2OCC[C@H]21)S(=O)(=O)c1ccc2c(c1)OCO2`, the IC50 with MT4 [1] was determined as 3.4 nM; in the data set with MT4 [5], 11 nM; in the data set on MT4 [6] it was 2.3 nM. In addition, the results for the clearance in [2] and in [7] were 22 mL/min/kg and 27 mL/min/kg, respectively. In addition, the values for the bioavailability in [3] and in data set [8] were 18% and 15%, respectively. Further, the half-life is 30 min in [4] and 132 min in data set [9].

Consider `COc1cccc(Oc2ccc(C[C@H](NC(=O)O[C@H]3CO[C@H]4OCC[C@H]43)[C@H](O)CN(CC(C)C)S(=O)(=O)c3ccc4c(c3)OCO4)cc2)c1`, for which the IC50 with MT4 [1] came out at 16 nM; in the data set with MT4 [5] it was 41 nM; in the data set with MT4 [6], 4.7 nM.

`CC(C)CN(C[C@@H](O)[C@H](Cc1ccc(Oc2cccc(F)c2)cc1)NC(=O)O[C@H]1CO[C@H]2OCC[C@H]21)S(=O)(=O)c1ccc2c(c1)OCO2`: the IC50 in the data set on MT4 [1] came to 17 nM; in the data set on MT4 [5], 48 nM; with MT4 [6], 5.7 nM.

Take `CC(C)CN(C[C@@H](O)[C@H](Cc1ccc(Oc2ccc(F)cc2)cc1)NC(=O)O[C@H]1CO[C@H]2OCC[C@H]21)S(=O)(=O)c1ccc2c(c1)OCO2`: the IC50 in the data set with MT4 [1] was 8.1 nM; with MT4 [5], 29 nM; in the data set with MT4 [6], 3.3 nM.

Take `CC(C)CN(C[C@@H](O)[C@H](Cc1ccc(Oc2ccncn2)cc1)NC(=O)O[C@H]1CO[C@H]2OCC[C@H]21)S(=O)(=O)c1ccc2c(c1)OCO2`: the half-maximal inhibitory concentration (IC50) is 2.8 nM with MT4 [1], 11 nM in the data set with MT4 [5] and 2 nM in the data set with MT4 [6].

As to `CC(C)CN(C[C@@H](O)[C@H](Cc1ccc(OCCn2cncn2)cc1)NC(=O)O[C@H]1CO[C@H]2OCC[C@H]21)S(=O)(=O)c1ccc2c(c1)OCO2`, the values for the concentration for half-maximal inhibition (IC50) in the data set with MT4 [1], in the data set on MT4 [5] and with MT4 [6] were 8.3 nM, 12 nM and 21 nM, respectively.

Consider `CC(C)CN(C[C@@H](O)[C@H](Cc1ccc(OCc2cscn2)cc1)NC(=O)O[C@H]1CO[C@H]2OCC[C@H]21)S(=O)(=O)c1ccc2c(c1)OCO2`, for which the IC50 amounted to 1.2 nM in the data set on MT4 [1], 3.5 nM with MT4 [5] and 0.6 nM in the data set on MT4 [6].

With `CC(C)(C)NC(=O)[C@@H]1C[C@@H]2CCCC[C@@H]2CN1C[C@@H](O)[C@H](Cc1ccccc1)NC(=O)[C@H](CC(N)=O)NC(=O)c1ccc2ccccc2n1`, the half-inhibitory concentration (IC50) in the data set with MT4 [1] is 80 nM; in the data set with MT4 [5], 603 nM; in the data set with MT4 [6], 60 nM.

Regarding `Cc1cccc(C)c1OCC(=O)N[C@@H](Cc1ccccc1)[C@@H](O)C[C@H](Cc1ccccc1)NC(=O)[C@H](C(C)C)N1CCCNC1=O` [LOPINAVIR], the IC50 in the data set on MT4 [1] was 400 nM; in the data set with MT4 [5], above 1000 nM; in the data set with MT4 [6], 40 nM.

As for `CC(C)CN(C[C@@H](O)[C@H](Cc1ccc(OCc2nccs2)cc1)NC(=O)O[C@H]1CO[C@H]2OCC[C@H]21)S(=O)(=O)c1ccc2c(c1)OCO2`, the results for the half-inhibitory concentration (IC50) in the data set on MT4 [1], in the data set with MT4 [5] and with MT4 [6] were 1.5 nM, 5.1 nM and 0.9 nM, respectively.

For the molecule `CC(C)CN(C[C@@H](O)[C@H](Cc1ccc(OCc2ccc3ccccc3n2)cc1)NC(=O)O[C@H]1CO[C@H]2OCC[C@H]21)S(=O)(=O)c1ccc2c(c1)OCO2`, the IC50 with MT4 [1] turned out to be 5.2 nM; in the data set on MT4 [5] it was 19 nM; in the data set with MT4 [6] it was 2.5 nM.

With `CC(C)CN(C[C@@H](O)[C@H](Cc1ccc(Oc2cccnc2)cc1)NC(=O)O[C@H]1CO[C@H]2OCC[C@H]21)S(=O)(=O)c1ccc2c(c1)OCO2`, the half-inhibitory concentration (IC50) stood at 2.4 nM in the data set with MT4 [1], 9.5 nM in the data set on MT4 [5] and 1.1 nM in the data set on MT4 [6].

Turning to `CC(C)c1nc(CN(C)C(=O)N[C@H](C(=O)N[C@@H](Cc2ccccc2)C[C@H](O)[C@H](Cc2ccccc2)NC(=O)OCc2cncs2)C(C)C)cs1` [RITONAVIR], the IC50 in the data set with MT4 [1] is above 1000 nM; in the data set on MT4 [5], above 1000 nM; in the data set on MT4 [6] it was 268 nM.

With `CC(C)CN(C[C@@H](O)[C@H](Cc1ccc(Oc2ccc(CO)cc2)cc1)NC(=O)O[C@H]1CO[C@H]2OCC[C@H]21)S(=O)(=O)c1ccc2c(c1)OCO2`, the IC50 with MT4 [1] was determined as 1.6 nM; in the data set with MT4 [5] it was 8.4 nM; in the data set with MT4 [6], 1.6 nM.

In the case of `CC(C)CN(C[C@@H](O)[C@H](Cc1ccc(Oc2ccc(CN3CCCC3)cc2)cc1)NC(=O)O[C@H]1CO[C@H]2OCC[C@H]21)S(=O)(=O)c1ccc2c(c1)OCO2`, the IC50 in the data set with MT4 [1] was 4.6 nM; with MT4 [5], 19 nM; with MT4 [6] it was 2.8 nM.

Regarding `CC(C)CN(C[C@@H](O)[C@H](Cc1ccc(OCc2cncs2)cc1)NC(=O)O[C@H]1CO[C@H]2OCC[C@H]21)S(=O)(=O)c1ccc2c(c1)OCO2`, the IC50 in the data set with MT4 [1] turned out to be 2.5 nM; in the data set on MT4 [5], 6.5 nM; with MT4 [6] it was 1.9 nM.

In the case of `CC(C)CN(C[C@@H](O)[C@H](Cc1ccc(OCc2ccccn2)cc1)NC(=O)O[C@H]1CO[C@H]2OCC[C@H]21)S(=O)(=O)c1ccc2c(c1)OCO2`, the IC50 in the data set on MT4 [1] came to 1.2 nM; with MT4 [5] it was 4.5 nM; in the data set with MT4 [6] it was 1.2 nM. Besides, the clearance in [7] came to 20 mL/min/kg. Further, the bioavailability in data set [8] was determined as 21%. Moreover, the half-life in data set [9] is 54.6 min.

Consider `CC(C)CN(C[C@@H](O)[C@H](Cc1ccc(OCCc2ccccc2)cc1)NC(=O)O[C@H]1CO[C@H]2OCC[C@H]21)S(=O)(=O)c1ccc2c(c1)OCO2`, for which the IC50 came to 8.7 nM in the data set with MT4 [1], 25 nM in the data set on MT4 [5] and 3.7 nM with MT4 [6].

As for `CC(C)CN(C[C@@H](O)[C@H](Cc1ccc(OCc2cccc(C#N)c2)cc1)NC(=O)O[C@H]1CO[C@H]2OCC[C@H]21)S(=O)(=O)c1ccc2c(c1)OCO2`, the IC50 in the data set on MT4 [1] worked out at 2.2 nM; in the data set on MT4 [5] it was 2.2 nM; in the data set with MT4 [6] it was 1.2 nM.

Molecule `Cc1c(O)cccc1C(=O)N[C@@H](CSc1ccccc1)[C@H](O)CN1C[C@H]2CCCC[C@H]2C[C@H]1C(=O)NC(C)(C)C` came in with an IC50 in the data set with MT4 [5] above 1000 nM.

For `CC(C)CN(C[C@@H](O)[C@H](Cc1ccc(Oc2ccc(CN3CCOCC3)cc2)cc1)NC(=O)O[C@H]1CO[C@H]2OCC[C@H]21)S(=O)(=O)c1ccc2c(c1)OCO2`, the IC50 in the data set with MT4 [1] turned out to be 2.9 nM; in the data set with MT4 [5], 13 nM; with MT4 [6], 1.2 nM.

Turning to `CC(=O)NCc1ccc(Oc2ccc(C[C@H](NC(=O)O[C@H]3CO[C@H]4OCC[C@H]43)[C@H](O)CN(CC(C)C)S(=O)(=O)c3ccc4c(c3)OCO4)cc2)cc1`, the IC50 in the data set on MT4 [1] stood at 3.4 nM; in the data set with MT4 [5], 6.3 nM; with MT4 [6] it was 6.2 nM.

Regarding `CC(C)CN(C[C@@H](O)[C@H](Cc1ccc(Oc2ccccc2)cc1)NC(=O)O[C@H]1CO[C@H]2OCC[C@H]21)S(=O)(=O)c1ccc2c(c1)OCO2`, the 50% inhibitory concentration (IC50) in the data set with MT4 [1] was 21 nM; in the data set with MT4 [5] it was 62 nM; in the data set with MT4 [6], 7.5 nM.

With `COC(=O)NCc1ccc(Oc2ccc(C[C@H](NC(=O)O[C@H]3CO[C@H]4OCC[C@H]43)[C@H](O)CN(CC(C)C)S(=O)(=O)c3ccc4c(c3)OCO4)cc2)cc1`, the IC50 was determined as 2.2 nM in the data set on MT4 [1], 6.8 nM with MT4 [5] and 1.3 nM with MT4 [6].

As for `CC(C)CN(C[C@@H](O)[C@H](Cc1ccc(OCc2ccccc2)cc1)NC(=O)O[C@H]1CO[C@H]2OCC[C@H]21)S(=O)(=O)c1ccc2c(c1)OCO2`, the IC50 in the data set on MT4 [1] was determined as 5.9 nM; in the data set on MT4 [5], 9.6 nM; with MT4 [6], 3.1 nM.

Take `CC(C)CN(C[C@@H](O)[C@H](Cc1ccccc1)NC(=O)O[C@H]1CO[C@H]2OCC[C@H]21)S(=O)(=O)c1ccc(N)cc1`: the concentration for half-maximal inhibition (IC50) was found to be 6.8 nM in the data set on MT4 [1], 32 nM in the data set with MT4 [5] and 3.9 nM in the data set on MT4 [6].

In the case of `CC(C)CN(C[C@@H](O)[C@H](Cc1ccc(Oc2ccc(CNS(C)(=O)=O)cc2)cc1)NC(=O)O[C@H]1CO[C@H]2OCC[C@H]21)S(=O)(=O)c1ccc2c(c1)OCO2`, the half-inhibitory concentration (IC50) in the data set on MT4 [1] was 5.3 nM; in the data set with MT4 [5] it was 11 nM; in the data set with MT4 [6], 7.2 nM.

`CC(C)CN(C[C@@H](O)[C@H](Cc1ccccc1)NC(=O)O[C@H]1CCOC1)S(=O)(=O)c1ccc(N)cc1` came in with an IC50 in the data set with MT4 [5] above 1000 nM.

In the case of `CC(C)CN(C[C@@H](O)[C@H](Cc1ccc(OCc2ncc[nH]2)cc1)NC(=O)O[C@H]1CO[C@H]2OCC[C@H]21)S(=O)(=O)c1ccc2c(c1)OCO2`, the 50% inhibitory concentration (IC50) in the data set with MT4 [1] stood at 20 nM; in the data set with MT4 [5], 16 nM; in the data set with MT4 [6] it was 69 nM.

For the molecule `CC(C)CN(C[C@@H](O)[C@H](Cc1ccc(OCCc2ccsc2)cc1)NC(=O)O[C@H]1CO[C@H]2OCC[C@H]21)S(=O)(=O)c1ccc2c(c1)OCO2`, the IC50 came to 17 nM in the data set on MT4 [1], 44 nM in the data set on MT4 [5] and 9.5 nM in the data set with MT4 [6].

For `COc1ccc(Oc2ccc(C[C@H](NC(=O)O[C@H]3CO[C@H]4OCC[C@H]43)[C@H](O)CN(CC(C)C)S(=O)(=O)c3ccc4c(c3)OCO4)cc2)cc1`, the IC50 with MT4 [1] is 6.9 nM; in the data set with MT4 [5] it was 27 nM; with MT4 [6], 2.1 nM.

Regarding `CC(C)CN(C[C@@H](O)[C@H](Cc1ccc(OCc2ccc3ccccc3c2)cc1)NC(=O)O[C@H]1CO[C@H]2OCC[C@H]21)S(=O)(=O)c1ccc2c(c1)OCO2`, the IC50 with MT4 [1] came to 30 nM; in the data set with MT4 [5] it was 59 nM; in the data set with MT4 [6], 11 nM.

As for `COC(=O)N[C@H](C(=O)N[C@@H](Cc1ccccc1)[C@@H](O)CN(Cc1ccc(-c2ccccn2)cc1)NC(=O)[C@@H](NC(=O)OC)C(C)(C)C)C(C)(C)C` [ATAZANAVIR], the values for the 50% inhibitory concentration (IC50) with MT4 [1], in the data set on MT4 [5] and in the data set on MT4 [6] were 93 nM, 70 nM and 25 nM, respectively.
